One compound from patent US8476455B2, “1-N-phenyl-amino-1h-imidazole derivatives and pharmaceutical compositions containing them” (Laboratoire Theramex, priority 2003, dated 2013) can be followed below.

In series [1] the target is human carbonic anhydrase II (Homo sapiens, UniProt P00918). Put plainly: Human carbonic anhydrase II activity (p-nitrophenyl acetate, colorimetric). The format is biochemical. To be noted: read-out: Human carbonic anhydrase II activity IC50 (nm) ± S.E.M. On the procedure:
Briefly, in this assay, human carbonic anhydrase II catalyses the conversion of p-nitrophenyl acetate into pnitrophenol. The potential inhibitory effect of test compounds was evaluated by colorimetric determination of prnitrophenol produced during the enzymatic reaction. The optical density levels obtained without inhibitor will be referred to as “total activity”. The levels obtained without Inhibitor and without the enzyme will be referred to as “blank” in order to assess any interference with the substrate during the assay (Table 2).

A further series concerns Ishikawa cells. Put plainly: Alkaline phosphatase activity in Ishikawa cells (estrogenic potency). The format is cell-based. To be noted: hydrochloride. The method, then: Ishikawa cells were plated into 96-well microplates 48 hours before studies. The next day, the medium was replaced by phenol red free medium supplemented with 5% charcoal-stripped dFCS. 24 hours later, the medium was renewed and compounds were added to the plated cells and incubated for an additional four-day period. […] At the end of the incubation period, alkaline phosphatase activity (APase) was assayed by a method involving the hydrolysis of p-nitrophenyl phosphate to p-nitrophenol and spectrophotometric determination of the product at 405 nm.
In brief, the microplates were first rinsed twice with cold phosphate buffered solution and then placed at −80° C. for at least 15 minutes. After thawing at room temperature, 50 μl ice-cold solution containing 5 mM p-nitrophenyl phosphate was added to each well. After a 15 to 60 minute incubation period at room temperature, the intensity of the yellow color generated by the production of p-nitrophenol was measured into each well at 405 nm.
For each tested concentration, APase activity, reflected by absorbance, was first expressed as fold increase over control (FI) and then as percentage of E2 activity (10^-8 M) chosen equal to 100%.

The target of the next series is T1, human steroid sulfatase (Homo sapiens, UniProt P08842).
T1 construct: The JEG-3 cell line is intrinsically very rich in human estrone sulfatase; endogenous in cells; host or cells: JEG-3 (human placental choriocarcinoma)
T1 sequence (P08842 22-583): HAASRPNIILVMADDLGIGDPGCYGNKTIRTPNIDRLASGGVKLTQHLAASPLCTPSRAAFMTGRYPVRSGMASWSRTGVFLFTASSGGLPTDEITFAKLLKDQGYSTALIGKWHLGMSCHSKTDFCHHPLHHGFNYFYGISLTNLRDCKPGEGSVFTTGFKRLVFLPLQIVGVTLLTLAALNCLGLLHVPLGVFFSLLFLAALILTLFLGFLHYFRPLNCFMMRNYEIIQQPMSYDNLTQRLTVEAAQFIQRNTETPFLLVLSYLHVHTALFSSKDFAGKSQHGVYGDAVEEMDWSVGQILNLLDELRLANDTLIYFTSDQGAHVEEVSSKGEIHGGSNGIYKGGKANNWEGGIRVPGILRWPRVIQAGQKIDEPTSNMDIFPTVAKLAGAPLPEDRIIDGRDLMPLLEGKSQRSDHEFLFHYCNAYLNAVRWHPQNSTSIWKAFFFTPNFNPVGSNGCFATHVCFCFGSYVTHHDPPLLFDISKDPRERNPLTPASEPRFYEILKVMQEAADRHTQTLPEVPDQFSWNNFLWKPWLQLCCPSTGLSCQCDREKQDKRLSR
Put plainly: Dual aromatase and steroid sulfatase activities in JEG-3 cells: sulfatase readout. As to conditions: footnote c: dual aromatase and sulfatase activity, nd: not detected, read-out: Sulfatase activity IC50 (nM) ± S.E.M. The format is cell-based. The method, then:
The JEG-3 cell line is intrinsically very rich in human estrone sulfatase and therefore is a useful biological system to evaluate new steroid sulfatase inhibitors in vitro. Assays were carried out with cells in logarithmic growth phase on 96-well microplates. 24 h before studies, cells were seeded in decomplemented fetal calf serum (dFCS) supplemented medium. The medium was removed 24 h later and cells were rinsed with PBS to eliminate any trace of dFCS. Then, ^3H-E1S was added in dFCS free medium, followed by test compounds at concentrations ranging from 10^−12 M to 10^−5 M. After 4 h of treatment, the medium was transferred into 96-deep-well microplates and centrifuged at 200×g for 10 min to pellet cells before toluene extraction. A fraction of the medium was used for toluene extraction in order to separate the conjugated substrate from non-conjugated products. The radioactivity in the toluene phase was measured by liquid scintillation counting. In parallel, after cell solubilization in a ethylenediamine tetraacetate solution, DNA content was measured by a standard fluorimetric method using the Hoechst 33258 fluorochrome. Finally, estrone sulfatase activity was expressed in pmoles of ^3H-E1+^3H-E2 formed/4 hours/mg DNA and estrone sulfatase inhibition as a percentage of control activity without inhibitor.
In order to evaluate the inhibitory potency of DASI compounds in parallel on both human aromatase and steroid sulfatase activities, a new in vitro model was set up using JEG-3 cells. The experimental conditions of the steroid sulfatase model previously described was adopted with slight modifications: the presence of the two substrates ^3-HE1S and 1β-^3H-androstenedione into the medium and an incubation period of 2 hours. Results were expressed in pmoles of product formed (^3H-E1+^3H-E2 or ^3H2O)/2 hours/mg DNA (Table 1).

The subject of the next series is MCF7 cells. Put plainly: ER+ human breast tumor tissue xenografted into nude rats. As to conditions: for Volume variations (expressed as % of E1S positive control group): oral 5 mg/kg/day, nude rats supplemented with E1S. Format: in vivo, nude rat (Rnu/Rnu). On the procedure: MCF7 cells (ATCC), derived from human breast adenocarcinoma, were injected subcutaneously in ovariectomized athymic nude mice supplemented with a daily administration of subcutaneous estradiol. Xenograft volumes were determined weekly. After 8 weeks, tumor volumes reached 1000 mm3, providing 500 mg samples of estrogen responsive tissues for each animals. At this time each tumor was sliced and regrafted into naïve ovariectomized nude rat (Rnu/Rnu). Then animals were treated with estrone sulfate as precursor of estradiol by the steroid sulfatase pathway. When tumor volumes reached significant increase, distinct from the placebo, animals were randomized and separated in two groups. The first group was treated with Ex 45 and supplemented with daily administration of estrone sulfate. The second one was sham administered with the vehicle and supplemented with the same dosage of estrone sulfate. Ex 45 was orally administered at 5 mg/kg/day for 5 weeks. Xenografts were measured weekly by electronic Caliper and compared to the estrone sulfate group. (Table 5).
On the technique in general: A xenograft is tissue or cells of one species grown in another, often human tumour cells in immunodeficient mice.

Each structure is given as a SMILES string. “Also recorded” adds a separate entry of the source.

Broadly, the IC50 is the concentration needed to halve the response being measured. Usually melting point stands for the temperature of the solid-liquid transition. Turning to `Cl.N#Cc1ccc(N(Cc2ccc(OS(N)(=O)=O)c(Br)c2)n2ccnc2)cc1` [Ex 45, Sulfamic acid 2-bromo-4-{[N-(4-cyanophenyl)-N-(1H-imidazol-1yl)amino]methyl}phenyl ester, hydrochloride], the melting point amounted to 145 °C. In series [1], the IC50 was 16.2 ± 3.3 nM. In addition, in the series with Ishikawa cells, the “estrogenicity in vitro (in words)” value is reported as “not estrogenic; also recorded: lack of estrogenicity”. For the same compound, the IC50 at human steroid sulfatase is roughly 10 nM. Moreover, the “Volume variations (expressed as % of E1S positive control group)” value in the series on MCF7 cells (Day 7) was determined as 0%. Further, the “Volume variations (expressed as % of E1S positive control group)” value in the series on MCF7 cells (Day 28) is −26%. The “Volume variations (expressed as % of E1S positive control group)” value in the series with MCF7 cells (Day 35) is reported as −44%. Also, in the series on MCF7 cells (Day 42), the “Volume variations (expressed as % of E1S positive control group)” value was −39%. Besides, the “decrease in tumor volume” value in the series with MCF7 cells (at the end of the experiments, after five weeks of daily treatment, 5 mg/kg/day oral) is recorded as 40%. The “tumor volumes (in words)” value with MCF7 cells (vs groups only treated with estrone sulfate (E1S)) is “did not increased”.
